In US8557816B2, “Aurora kinase modulators and method of use” (Amgen Inc., priority 2007, dated 2013):

What was measured:
AuroraA-TPX2 = target: T1, AuroraA-TPX2 (Homo sapiens, UniProt O14965); assay: AuroraA-TPX2 Homogeneous Time Resolved Fluorescent (HTRF) kinase assay; format: biochemical; conditions: average; read-out: AurA_IC50_IP (uM Avg)
T1 construct: 20 μL of AuroraA-TPX2 KD GST for a final volume of about 41 μL; GST
T1 sequence (O14965 133-383 limits assumed): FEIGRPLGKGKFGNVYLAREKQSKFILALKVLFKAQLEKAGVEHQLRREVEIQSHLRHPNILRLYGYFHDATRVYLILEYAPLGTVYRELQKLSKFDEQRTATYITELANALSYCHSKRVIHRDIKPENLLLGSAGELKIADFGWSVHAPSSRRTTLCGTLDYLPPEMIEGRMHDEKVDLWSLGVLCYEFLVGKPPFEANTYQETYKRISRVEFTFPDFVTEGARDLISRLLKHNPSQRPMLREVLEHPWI
T1 sequence (Q9ULW0 1-43 partner limits assumed): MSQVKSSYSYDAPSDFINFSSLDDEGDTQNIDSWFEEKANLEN
Summary of the method: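 HTRF read-out (Eu 615 nm to APC 655 nm) of phosphorylated biotin-PLK, detected with 0.02 nM europium anti-phosphoPLK antibody and 0.0005 mg/mL SA-APC after overnight equilibration.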

AuroraB = target: T2, AuroraB (Homo sapiens, UniProt Q96GD4); assay: AuroraB Homogeneous Time Resolved Fluorescent (HTRF) kinase assay; format: biochemical; conditions: average; read-out: AurB_IC50_IP (uM Avg)
T2 construct: 20 μL of AuroraB FL H is for a final volume of 41 μL; His
T2 sequence (Q96GD4 whole entry): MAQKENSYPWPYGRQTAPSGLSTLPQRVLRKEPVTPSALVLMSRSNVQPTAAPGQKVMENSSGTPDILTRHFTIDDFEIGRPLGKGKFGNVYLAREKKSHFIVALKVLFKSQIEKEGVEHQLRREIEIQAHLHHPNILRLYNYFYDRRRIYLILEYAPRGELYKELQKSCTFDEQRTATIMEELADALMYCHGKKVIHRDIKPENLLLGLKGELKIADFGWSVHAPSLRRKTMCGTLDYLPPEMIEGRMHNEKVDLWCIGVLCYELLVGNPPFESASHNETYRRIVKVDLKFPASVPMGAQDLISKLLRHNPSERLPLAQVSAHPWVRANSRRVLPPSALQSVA
Summary of the method: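 Read-out is time-resolved FRET between europium anti-phospho-H3 antibody and streptavidin-APC, added in EDTA buffer to stop the reaction and equilibrated about 60 min (ex 320, em 615 and 655 nm). Preceding reaction: ~90 min, full-length enzyme, ATP, 0.1 μM biotin-Histone H3 substrate, Mg/Mn HEPES buffer pH 7.5.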

Row | SMILES | IC50 (AuroraA-TPX2) | IC50 (AuroraB)
1 | COc1cnc2c(Oc3ccc(Nc4nnc(-c5ccc(C)cn5)c5ccccc45)cc3)ccnc2c1 [compound 125, N-(4-((7-(methyloxy)-1,5-naphthyridin-4-yl)oxy)phenyl)-4-(5-methyl-2-pyridinyl)-1-phthalazinamine] | 0.018 µM | 0.003 µM
2 | COc1cnc2c(Oc3ccc(Cc4nnc(-c5ccc(C)cc5)c5ccccc45)cc3)ccnc2c1 [compound 126, 3-(methyloxy)-8-((4-((4-(4-methylphenyl)-1-phthalazinyl)methyl)phenyl)oxy)-1,5-naphthyridine] | 0.388 µM | 0.017 µM
3 | COc1cc2nccc(Oc3ccc(Nc4nnc(-c5cccc(C)n5)c5ccccc45)cn3)c2cn1 [compound 127, N-(6-((7-(methyloxy)-1,6-naphthyridin-4-yl)oxy)-3-pyridinyl)-4-(6-methyl-2-pyridinyl)-1-phthalazinamine] | 0.241 µM | 0.009 µM
4 | COc1cnc2c(Oc3ccc(Nc4nnc(-c5cccc(C)n5)c5ccccc45)cn3)ccnc2c1 [compound 128, N-(6-((7-(methyloxy)-1,5-naphthyridin-4-yl)oxy)-3-pyridinyl)-4-(6-methyl-2-pyridinyl)-1-phthalazinamine] | 0.099 µM | 0.018 µM
5 | COc1cncc(-c2nnc(Nc3ccc(Oc4ccnc5cc(OC)cnc45)cc3)c3ccccc23)c1 [compound 129, N-(4-((7-(methyloxy)-1,5-naphthyridin-4-yl)oxy)phenyl)-4-(5-(methyloxy)-3-pyridinyl)-1-phthalazinamine] | 0.165 µM | 0.014 µM
6 | COc1cnc2c(Oc3ccc(Nc4nnc(-c5ccncc5OC)c5ccccc45)cc3)ccnc2c1 [compound 130, N-(4-((7-(methyloxy)-1,5-naphthyridin-4-yl)oxy)phenyl)-4-(3-(methyloxy)-4-pyridinyl)-1-phthalazinamine] | 0.654 µM | 0.1 µM
7 | COc1cc2nccc(Oc3ccc(Nc4nnc(-c5cccc(OC)n5)c5ccccc45)cc3)c2cn1 [compound 131, N-(4-((7-(methyloxy)-1,6-naphthyridin-4-yl)oxy)phenyl)-4-(6-(methyloxy)-2-pyridinyl)-1-phthalazinamine] | 0.019 µM | 0.003 µM
8 | COc1cnc2c(Oc3ccc(Nc4nnc(-c5cccc(COC(C)=O)n5)c5ccccc45)cc3)ccnc2c1 [compound 132, (6-(4-((4-((7-(methyloxy)-1,5-naphthyridin-4-yl)oxy)phenyl)amino)-1-phthalazinyl)-2-pyridinyl)methyl acetate] | 0.022 µM | 0.005 µM
9 | Brc1ccc2c(Oc3ccc(Nc4nnc(-c5ccccc5)c5ccccc45)cc3)ccnc2c1 [compound 133, N-(4-((7-bromo-4-quinolinyl)oxy)phenyl)-4-phenyl-1-phthalazinamine] | 0.494 µM | 0.028 µM
10 | Brc1ccc2nccc(Oc3ccc(Nc4nnc(-c5ccccc5)c5ccccc45)cc3)c2c1 [compound 134, N-(4-((6-bromo-4-quinolinyl)oxy)phenyl)-4-phenyl-1-phthalazinamine] | 0.176 µM | 0.024 µM
11 | COc1cnc2c(Oc3ccc(Nc4nnc(-c5ccccc5)c5ccccc45)nc3)ccnc2c1 [compound 135, N-(5-((7-(methyloxy)-1,5-naphthyridin-4-yl)oxy)-2-pyridinyl)-4-phenyl-1-phthalazinamine] | 0.063 µM | 0.012 µM
12 | COc1cnc2c(Oc3ccc(Nc4nnc(-c5ccc6c(c5)CC(C)(C)O6)c5ccccc45)cc3)ccnc2c1 [compound 136, 4-(2,2-dimethyl-2,3-dihydro-1-benzofuran-5-yl)-N-(4-((7-(methyloxy)-1,5-naphthyridin-4-yl)oxy)phenyl)-1-phthalazinamine] | 0.037 µM | 0.016 µM
13 | COc1cnc2c(Oc3ccc(Nc4nnc(-c5ccc(OC(C)C)cc5)c5ccccc45)cc3)ccnc2c1 [compound 137, 4-(4-((1-methylethyl)oxy)phenyl)-N-(4-((7-(methyloxy)-1,5-naphthyridin-4-yl)oxy)phenyl)-1-phthalazinamine] | 0.091 µM | 0.018 µM
14 | COc1cnc2c(Oc3ccc(Nc4nnc(-c5ccc(C)s5)c5ccccc45)cc3)ccnc2c1 [compound 138, N-(4-((7-(methyloxy)-1,5-naphthyridin-4-yl)oxy)phenyl)-4-(5-methyl-2-thienyl)-1-phthalazinamine] | 0.018 µM | 0.013 µM
15 | COc1cccc(-c2nnc(Nc3ccc(Oc4ccnc5cc(OC)cnc45)cc3)c3ccccc23)c1 [compound 139, N-(4-((7-(methyloxy)-1,5-naphthyridin-4-yl)oxy)phenyl)-4-(3-(methyloxy)phenyl)-1-phthalazinamine] | 0.018 µM | 0.006 µM
16 | COc1cnc2c(Oc3ccc(Nc4nnc(-c5ccc(Cl)s5)c5ccccc45)cc3)ccnc2c1 [compound 140, 4-(5-chloro-2-thienyl)-N-(4-((7-(methyloxy)-1,5-naphthyridin-4-yl)oxy)phenyl)-1-phthalazinamine] | 0.022 µM | 0.008 µM
17 | COc1ccc(-c2nnc(Nc3ccc(Oc4ccnc5cc(C#N)ccc45)cc3)c3ccccc23)cc1 [compound 141, 4-((4-((4-(4-(methyloxy)phenyl)-1-phthalazinyl)amino)phenyl)oxy)-7-quinolinecarbonitrile] | 0.019 µM | 0.004 µM
18 | COc1cnc2c(Oc3ccc(Nc4nnc(-c5ccc6sccc6c5)c5ccccc45)cc3)ccnc2c1 [compound 142, 4-(1-benzothien-5-yl)-N-(4-((7-(methyloxy)-1,5-naphthyridin-4-yl)oxy)phenyl)-1-phthalazinamine] | 0.008 µM | 0.007 µM
19 | COc1cnc2c(Oc3ccc(Nc4nnc(-c5cc6ccccc6n5C)c5ccccc45)cc3)ccnc2c1 [compound 143, 4-(1-methyl-1H-indol-2-yl)-N-(4-((7-(methyloxy)-1,5-naphthyridin-4-yl)oxy)phenyl)-1-phthalazinamine] | 0.012 µM | 0.009 µM
20 | COc1cnc2c(Oc3ccc(Nc4ncc(-c5ccccc5)c5ccccc45)cc3)ccnc2c1 [compound 144, N-(4-((7-(methyloxy)-1,5-naphthyridin-4-yl)oxy)phenyl)-4-phenyl-1-isoquinolinamine] | 0.061 µM | 0.02 µM
21 | COc1cc2nccc(Oc3ccc(Nc4ncc(-c5ccccc5)c5ccccc45)cc3)c2cn1 [compound 145, N-(4-((7-(methyloxy)-1,6-naphthyridin-4-yl)oxy)phenyl)-4-phenyl-1-isoquinolinamine] | 0.326 µM | 0.096 µM
22 | COc1cnc2c(Oc3ccc(Nc4nnc(-c5ccc(C(F)(F)F)cc5)c5ccccc45)cc3)ccnc2c1 [compound 146, N-(4-((7-(methyloxy)-1,5-naphthyridin-4-yl)oxy)phenyl)-4-(4-(trifluoromethyl)phenyl)-1-phthalazinamine] | 0.026 µM | 0.008 µM
23 | N#Cc1ccc2c(Oc3ccc(Nc4nnc(-c5ccc(C(F)(F)F)cc5)c5ccccc45)cc3)ccnc2c1 [compound 147, 4-((4-((4-(4-(trifluoromethyl)phenyl)-1-phthalazinyl)amino)phenyl)oxy)-7-quinolinecarbonitrile] | 0.025 µM | 0.011 µM
24 | CCc1cc(-c2ccccc2)nnc1Nc1ccc(Oc2ncnc3cc(OC)c(OC)cc23)cc1 [compound 148, N-(4-((6,7-bis(methyloxy)-4-quinazolinyl)oxy)phenyl)-4-ethyl-6-phenyl-3-pyridazinamine] | 0.062 µM | 0.016 µM
25 | CCc1cc(-c2ccccc2)nnc1Nc1ccc(Oc2ccnc3cc(C#N)ccc23)cc1 [compound 149, 4-((4-((4-ethyl-6-phenyl-3-pyridazinyl)amino)phenyl)oxy)-7-quinolinecarbonitrile] | 0.146 µM | 0.014 µM
26 | COc1cc2nccc(Oc3ccc(Nc4nnc(-c5cccc(C)n5)c5ccccc45)cc3)c2cc1OC [compound 150, N-(4-((6,7-bis(methyloxy)-4-quinolinyl)oxy)phenyl)-4-(6-methyl-2-pyridinyl)-1-phthalazinamine] | 0.014 µM | 0.007 µM
27 | COc1cnc2c(Oc3ccc(Nc4nnc(N5CCCCC5)c5ccccc45)cc3)ccnc2c1 [compound 151, N-(4-((7-(methyloxy)-1,5-naphthyridin-4-yl)oxy)phenyl)-4-(1-piperidinyl)-1-phthalazinamine] | 0.022 µM | 0.005 µM
28 | COc1cnc2c(Oc3ccc(Nc4nnc(-c5cc(C)cs5)c5ccccc45)cc3)ccnc2c1 [compound 152, N-(4-((7-(methyloxy)-1,5-naphthyridin-4-yl)oxy)phenyl)-4-(4-methyl-2-thienyl)-1-phthalazinamine] | 0.006 µM | 0.006 µM
29 | COc1cc2ncnc(Oc3ccc(Nc4nnc(-c5cc(C)cs5)c5ccccc45)cc3)c2cc1OC [compound 153, N-(4-((6,7-bis(methyloxy)-4-quinazolinyl)oxy)phenyl)-4-(4-methyl-2-thienyl)-1-phthalazinamine] | 0.009 µM | 0.012 µM
30 | COc1cnc2c(Oc3ccc(Nc4nnc(-c5ccc(Cl)c(C#N)c5)c5ccccc45)cc3)ccnc2c1 [compound 154, 2-chloro-5-(4-((4-((7-(methyloxy)-1,5-naphthyridin-4-yl)oxy)phenyl)amino)-1-phthalazinyl)benzonitrile] | 0.018 µM | 0.004 µM
